According to patent US9474790B2, “Stable, protracted GLP-1/glucagon receptor co-agonists for medical use” (Novo Nordisk A/S, priority 2013, dated 2016):
Numbered stars: 1 amine (or outer) side, 2 acyl side, 3 side chain; on linkers, the order of the positions; unused ones are H or OH. Bridge positions count the residues as written; N and C are the ends. Square brackets hold non-standard residues; d marks the D form. Side chains are listed from the residue outwards. Peptide text beside a SMILES is read from it. I, II: the chains in the order shown. * marks the point of attachment. C18 diacid = O=C(O)CCCCCCCCCCCCCCCCC(=O)*; γGlu = O=C(O)[C@H](CCC(=O)[*:2])N[*:1]; Ac4c = NC1(C(=O)O)CCC1; AEEA = NCCOCCOCC(=O)O; Aib = CC(C)(N)C(=O)O

Columns and labels:
[1] = Thioflavin T (ThT) fibrillation assay for physical stability; format: physicochemical; details: 250 μM in 10 mM HEPES buffer, pH 7.5, 37° C., shaking 960 rpm
Method in brief: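 Fibrillation was followed by ThT (1 μM) fluorescence every 20 min, 444/485 nm, for 250 μM peptide in 10 mM HEPES pH 7.5 shaken at 960 rpm, 37° C. Lag time (t0−2τ) and apparent rate constant (1/τ) come from a sigmoidal fit. Recovery is % of initial concentration remaining soluble after centrifugation and filtration (RP-HPLC).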

[2] = Chemical stability assessment by RP-UPLC; format: physicochemical; details: 333 μM, 8 mM phosphate buffer pH 7.3, 37° C. vs 5° C.
Experimental: The purpose of this assay was to assess the chemical stability of the glucagon derivatives of the invention in aqueous solutions.
Chemical stability of glucagon derivatives or analogues was investigated by RP-UPLC separation and UV detection. Lyophilized samples were dissolved in a 8 mM Phosphate buffer pH 8.6, followed by adjustment to pH 7.3.using HCl to a final concentration of 333 μM. Samples were incubated for 14 days at 5° C. and 37° C. followed by RP-UPLC analysis. Purity was defined as the area percentage of the main peak in relation to the total area of all integrated peaks in each chromatogram. Purity loss after 14 days at 37° C. was determined as the difference in purity between the samples incubated at 5° C. and 37° C., divided by the purity of the sample after incubation for 14 days at 5° C.
RP-UPLC analysis was performed using a Waters BEH130 2.1 mm×150 mm, 1.7 μm column operated at 50° C. and a flow rate of 0.4 mL/min using a mobile phase system consisting of A: 0.05% TFA in MQ-water B: 0.05% TFA in Acetonitrile. UV-detection was performed at 215 nm. The typical gradient profile used for most of the samples is shown below.
For some individual derivatives or analogues eluting at substantially different retention times compared with the majority of derivatives or analogues, some adjustments to the gradient profile were made to better enable purity assessment comparison across samples. The data confirmed the improved chemical stability of the glucagon derivatives of this invention.

Compound | THT assay Lag time (Ex. 76) [1] | Purity loss; 14 days at 37° C. [2]
CC(C)C[C@H](NC(=O)[C@H](Cc1ccc(O)cc1)NC(=O)[C@H](CCCCN)NC(=O)[C@H](CO)NC(=O)[C@H](CC(C)C)NC(=O)[C@H](CC(=O)O)NC(=O)[C@H](CO)NC(=O)[C@@H](NC(=O)[C@H](Cc1ccccc1)NC(=O)[C@@H](NC(=O)CNC(=O)[C@H](CCC(N)=O)NC(=O)C(C)(C)NC(=O)[C@@H](N)Cc1c[nH]cn1)[C@@H](C)O)[C@@H](C)O)C(=O)N[C@@H](CC(=O)O)C(=O)N[C@@H](C)C(=O)N[C@@H](CCCNC(=N)N)C(=O)N[C@@H](CCCNC(=N)N)C(=O)N[C@@H](C)C(=O)N[C@@H](CCCNC(=N)N)C(=O)N[C@@H](CCC(=O)O)C(=O)N[C@@H](Cc1ccccc1)C(=O)N[C@H](C(=O)N[C@@H](CCC(N)=O)C(=O)N[C@@H](Cc1c[nH]c2ccccc12)C(=O)N[C@@H](CC(C)C)C(=O)N[C@@H](CC(C)C)C(=O)N[C@@H](CC(N)=O)C(=O)N[C@@H](CCCCNC(=O)CC[C@H](NC(=O)CC[C@H](NC(=O)COCCOCCNC(=O)CC[C@H](NC(=O)CCCCCCCCCCCCCCCCC(=O)O)C(=O)O)C(=O)O)C(=O)O)C(N)=O)C(C)C [Example 39, N^ε29-[(4S)-4-carboxy-4-[[(4S)-4-carboxy-4-[[2-[2-[2-[[(4S)-4-carboxy-4-(17-carboxyheptadecanoylamino)butanoyl]amino]ethoxy]ethoxy]acetyl]amino]butanoyl]amino]butanoyl]-[Aib2,Leu10,Ala16,Arg20,Glu21,Leu27,Lys29]-Glucagon amide] (H-H[Aib]QGTFTSDLSKYLDARRAREFVQWLLNK([γGlu-γGlu-AEEA-γGlu-C18 diacid])-NH2; N-terminus assumed) | 45 h | 3%
CC(C)C[C@H](NC(=O)[C@H](Cc1ccc(O)cc1)NC(=O)[C@H](CCCCN)NC(=O)[C@H](CO)NC(=O)[C@H](CC(C)C)NC(=O)[C@H](CC(=O)O)NC(=O)[C@H](CO)NC(=O)[C@@H](NC(=O)[C@H](Cc1ccccc1)NC(=O)[C@@H](NC(=O)CNC(=O)[C@H](CCC(N)=O)NC(=O)C(C)(C)NC(=O)[C@@H](N)Cc1c[nH]cn1)[C@@H](C)O)[C@@H](C)O)C(=O)N[C@@H](CC(=O)O)C(=O)N[C@@H](C)C(=O)N[C@@H](CCCNC(=N)N)C(=O)N[C@@H](CCCNC(=N)N)C(=O)N[C@@H](C)C(=O)N[C@@H](CCCNC(=N)N)C(=O)N[C@@H](CC(=O)O)C(=O)N[C@@H](Cc1ccccc1)C(=O)N[C@H](C(=O)N[C@@H](CCC(N)=O)C(=O)N[C@@H](Cc1c[nH]c2ccccc12)C(=O)N[C@@H](CC(C)C)C(=O)N[C@@H](CC(C)C)C(=O)N[C@@H](CO)C(=O)N[C@@H](CCCCNC(=O)CC[C@H](NC(=O)CC[C@H](NC(=O)COCCOCCNC(=O)COCCOCCNC(=O)CC[C@H](NC(=O)CCCCCCCCCCCCCCCCC(=O)O)C(=O)O)C(=O)O)C(=O)O)C(N)=O)C(C)C [Example 66, N^ε29-[(4S)-4-carboxy-4-[[(4S)-4-carboxy-4-[[2-[2-[2-[[2-[2-[2-[[(4S)-4-carboxy-4-(17-carboxyheptadecanoylamino)butanoyl]amino]ethoxy]ethoxy]acetyl]amino]ethoxy]ethoxy]acetyl]amino]butanoyl]amino]butanoyl]-[Aib2,Leu10,Ala16,Arg20,Leu27,Ser28,Lys29]-Glucagon amide] (H-H[Aib]QGTFTSDLSKYLDARRARDFVQWLLSK([γGlu-γGlu-AEEA-AEEA-γGlu-C18 diacid])-NH2; N-terminus assumed) | 45 h | 2%
CC(C)C[C@H](NC(=O)[C@H](Cc1c[nH]c2ccccc12)NC(=O)[C@H](CCC(N)=O)NC(=O)[C@@H](NC(=O)[C@H](Cc1ccccc1)NC(=O)[C@H](CCC(=O)O)NC(=O)[C@H](CCCNC(=N)N)NC(=O)[C@H](C)NC(=O)[C@H](CCCNC(=N)N)NC(=O)[C@H](CCCNC(=N)N)NC(=O)C(C)(C)NC(=O)[C@H](CC(=O)O)NC(=O)[C@H](CC(C)C)NC(=O)[C@H](Cc1ccc(O)cc1)NC(=O)[C@H](CCCCN)NC(=O)[C@H](CO)NC(=O)[C@H](CC(C)C)NC(=O)[C@H](CC(=O)O)NC(=O)[C@H](CO)NC(=O)[C@@H](NC(=O)[C@H](Cc1ccccc1)NC(=O)[C@@H](NC(=O)CNC(=O)[C@H](CCC(N)=O)NC(=O)C(C)(C)NC(=O)[C@@H](N)Cc1c[nH]cn1)[C@@H](C)O)[C@@H](C)O)C(C)C)C(=O)N[C@@H](CC(C)C)C(=O)N[C@@H](CCCCNC(=O)CC[C@H](NC(=O)CC[C@H](NC(=O)COCCOCCNC(=O)COCCOCCNC(=O)CC[C@H](NC(=O)CCCCCCCCCCCCCCCCC(=O)O)C(=O)O)C(=O)O)C(=O)O)C(=O)N[C@H](C(N)=O)[C@@H](C)O [Example 51, N^ε28-[(4S)-4-carboxy-4-[[(4S)-4-carboxy-4-[[2-[2-[2-[[2-[2-[2-[[(4S)-4-carboxy-4-(17-carboxyheptadecanoylamino)butanoyl]amino]ethoxy]ethoxy]acetyl]amino]ethoxy]ethoxy]acetyl]amino]butanoyl]amino]butanoyl]-[Aib2,Leu10,Aib16,Arg20,Glu21,Leu27,Lys28]-Glucagon amide] (H-H[Aib]QGTFTSDLSKYLD[Aib]RRAREFVQWLLK([γGlu-γGlu-AEEA-AEEA-γGlu-C18 diacid])T-NH2; N-terminus assumed) | 45 h | 3%

Now from value to compound:

THT assay Lag time (Ex. 76) [1] | Purity loss; 14 days at 37° C. [2] | Compound
45 h | 2% | CC(C)C[C@H](NC(=O)[C@H](Cc1ccc(O)cc1)NC(=O)[C@H](CCCCN)NC(=O)[C@H](CO)NC(=O)[C@H](CC(C)C)NC(=O)[C@H](CC(=O)O)NC(=O)[C@H](CO)NC(=O)[C@@H](NC(=O)[C@H](Cc1ccccc1)NC(=O)[C@@H](NC(=O)CNC(=O)[C@H](CCC(N)=O)NC(=O)C1(NC(=O)[C@@H](N)Cc2c[nH]cn2)CCC1)[C@@H](C)O)[C@@H](C)O)C(=O)N[C@@H](CCC(=O)O)C(=O)N[C@@H](CO)C(=O)N[C@@H](CCCCN)C(=O)N[C@@H](CCCNC(=N)N)C(=O)N[C@@H](C)C(=O)N[C@@H](CCCNC(=N)N)C(=O)N[C@@H](CCC(=O)O)C(=O)N[C@@H](Cc1ccccc1)C(=O)N[C@H](C(=O)N[C@@H](CCC(N)=O)C(=O)N[C@@H](Cc1c[nH]c2ccccc12)C(=O)N[C@@H](CC(C)C)C(=O)N[C@@H](CC(C)C)C(=O)N[C@@H](CCCCNC(=O)CNC(=O)[C@H](CO)NC(=O)[C@H](CCC(=O)O)NC(=O)CNC(=O)[C@H](CO)NC(=O)CC[C@H](NC(=O)CC[C@H](NC(=O)CCCCCCCCCCCCCCCCC(=O)O)C(=O)O)C(=O)O)C(=O)N[C@H](C(N)=O)[C@@H](C)O)C(C)C [Example 36, N^ε28-[2-[[(2S)-2-[[(2S)-4-carboxy-2-[[2-[[(2S)-2-[[(4S)-4-carboxy-4-[[(4S)-4-carboxy-4-(17-carboxyheptadecanoylamino)butanoyl]amino]butanoyl]amino]-3-hydroxypropanoyl]amino]acetyl]amino]butanoyl]amino]-3-hydroxypropanoyl]amino]acetyl]-[Acb2,Leu10,Glu15,Lys17, Arg20,Glu21,Leu27,Lys28]-Glucagon amide] (I: H-H[Ac4c]QGTFTSDLSKYLESKRAREFVQWLLKT-NH2 / II: {C18 diacid-γGlu-γGlu}-SGESG; amide I:28-II:C; N-terminus assumed)
45 h | 2% | CC(C)C[C@H](NC(=O)[C@H](CC(=O)O)NC(=O)[C@H](CC(C)C)NC(=O)[C@H](Cc1ccc(O)cc1)NC(=O)[C@H](CCCCN)NC(=O)[C@H](CO)NC(=O)[C@H](CC(C)C)NC(=O)[C@H](CC(=O)O)NC(=O)[C@H](CO)NC(=O)[C@@H](NC(=O)[C@H](Cc1ccccc1)NC(=O)[C@@H](NC(=O)CNC(=O)[C@H](CCC(N)=O)NC(=O)C1(NC(=O)[C@@H](N)Cc2c[nH]cn2)CCC1)[C@@H](C)O)[C@@H](C)O)C(=O)N[C@@H](CCCNC(=N)N)C(=O)N[C@@H](CCCNC(=N)N)C(=O)N[C@@H](C)C(=O)N[C@@H](CCCNC(=N)N)C(=O)N[C@@H](CCC(=O)O)C(=O)N[C@@H](Cc1ccccc1)C(=O)N[C@H](C(=O)N[C@@H](CCC(N)=O)C(=O)N[C@@H](Cc1c[nH]c2ccccc12)C(=O)N[C@@H](CC(C)C)C(=O)N[C@@H](CC(C)C)C(=O)N[C@@H](CCCCNC(=O)CC[C@H](NC(=O)CC[C@H](NC(=O)COCCOCCNC(=O)COCCOCCNC(=O)CC[C@H](NC(=O)CC[C@H](NC(=O)CCCCCCCCCCCCCCCCC(=O)O)C(=O)O)C(=O)O)C(=O)O)C(=O)O)C(=O)N[C@H](C(N)=O)[C@@H](C)O)C(C)C [Example 49, N^ε28-[(4S)-4-carboxy-4-[[(4S)-4-carboxy-4-[[2-[2-[2-[[2-[2-[2-[[(4S)-4-carboxy-4-[[(4S)-4-carboxy-4-(17-carboxyheptadecanoylamino)butanoyl]amino]butanoyl]amino]ethoxy]ethoxy]acetyl]amino]ethoxy]ethoxy]acetyl]amino]butanoyl]amino]butanoyl]-[Acb2,Leu10,Leu16,Arg20,Glu21,Leu27,Lys28]-Glucagon amide] (H-H[Ac4c]QGTFTSDLSKYLDLRRAREFVQWLLK([γGlu-γGlu-AEEA-AEEA-γGlu-γGlu-C18 diacid])T-NH2; N-terminus assumed)
